Assay [1] concerns MDA-MB-231. Kind of assay: Antiproliferative activity against human MDA-MB-231 cells assessed as inhibition of cell growth. It is filed as functional, cell-based.
The test system of assay [2] is HCC1806. Kind of assay: Antiproliferative activity against human HCC1806 cells assessed as inhibition of cell growth incubated for 36 hrs by SRB assay. It is filed as functional, cell-based. The following applies: HCC1806, 36 h.
Assay [3] has as its system MDA-MB-231. Kind of assay: Antiproliferative activity against human MDA-MB-231 cells assessed as inhibition of cell growth incubated for 36 hrs by SRB assay. It is filed as functional, cell-based. To be noted: MDA-MB-231, 36 h.
Another assay concerns MCF7. Description: Antiproliferative activity against human MCF7 cells assessed as inhibition of cell growth incubated for 96 hrs by coulter counter analysis. It is filed as functional, cell-based. The following applies: MCF7, 96 h.
Assay [4] concerns MDA-MB-231. Description: Antiproliferative activity against human MDA-MB-231 cells overexpressing ERnegative and […] assessed as inhibition of cell growth incubated for 96 hrs by coulter counter analysis. The format is functional, cell-based. To be noted: MDA-MB-231, 96 h.
Assay [5] has as its system HCC1806. Description: Induction of cell death in human HCC1806 cells assessed as increase in p21 expression incubated for 36 hrs by Western blot analysis. The format is functional, cell-based. The following applies: dose 10-20 µM.
Assay [6] relates to HCC1806. Description: Induction of cell cycle arrest in human HCC1806 cells assessed as increase in S phase cells at 10 uM incubated for 36 hrs by PI staining based flow cytometric analysis. The format is functional.
Assay [7] has as its system HCC1806. Kind of assay: Antiproliferative activity against human HCC1806 cells assessed as inhibition of cell growth at 20 uM incubated for 36 hrs by SRB assay relative to control. It is filed as functional.
Assay [8] concerns HCC1806. Description: Induction of cell cycle arrest in human HCC1806 cells assessed as decrease in G2/M phase cells at 10 uM incubated for 36 hrs by PI staining based flow cytometric analysis. It is filed as functional.
In assay [9] the test system is HCC1806. Kind of assay: Induction of cell death in human HCC1806 cells assessed as activation of p38 protein incubated for 36 hrs by Western blot analysis. The format is functional, cell-based. To be noted: dose 10-20 µM.
Assay [10] has as its system MDA-MB-231. Kind of assay: Antiproliferative activity against human MDA-MB-231 cells assessed as inhibition of cell growth at 20 uM incubated for 36 hrs by SRB assay relative to control. The format is functional.

Each structure is given as a SMILES string. Activity calls are given as the source filed them. The calls are words filed in the database; no cut-off is given here. A value given as a limit tells only on which side of the number the result lay.

With `CC(=O)O[C@@H]1C[C@@]23C[C@@]24CC[C@H](O[C@@H]2OC[C@@H](O)[C@H](O)[C@H]2O)C(C)(C)[C@@H]4CC[C@H]3[C@]2(C)C[C@@H]3O[C@]4(C[C@@H](C)[C@@H]3[C@@]12C)O[C@H](O)[C@@]1(C)O[C@@H]41` [ACTEIN], the IC50 in the assay with MDA-MB-231 [1] is 60 µM; in the assay on HCC1806 [2] it was > 20 µM; in the assay with MDA-MB-231 [3], > 20 µM; in the assay with MCF7, 14 µM; in the assay on MDA-MB-231 [4] it was 74 µM.
Regarding `CC(=O)O[C@@H]1[C@@H](OC(C)=O)[C@H](O[C@H]2CC[C@]34C[C@]35C[C@@H](OC(C)=O)[C@]3(C)[C@H]6[C@H](C)C[C@]7(O[C@@H](OC(=O)CCC(=O)O)[C@@]8(C)O[C@@H]78)O[C@H]6C[C@@]3(C)[C@@H]5CC[C@H]4C2(C)C)OC[C@H]1OC(C)=O`, the half-inhibitory concentration (IC50) in the assay on HCC1806 [2] came to 2.78 µM; with MDA-MB-231 [3], 9.11 µM. In addition, the Activity result in the assay on HCC1806 [5] and with HCC1806 [9] was “Dose-Dependent Effect” in each case. Also, the result with HCC1806 [6] and in the assay with HCC1806 [8] was Active. Further, the inhibition at 20 µM with HCC1806 [7] and with MDA-MB-231 [10] was > 50% each time.
In the case of `CC(=O)O[C@@H]1[C@@H](OC(C)=O)[C@H](O[C@H]2CC[C@]34C[C@]35C=C[C@]3(C)[C@H]6[C@H](C)C[C@]7(OC(=O)[C@@]8(C)O[C@@H]78)O[C@H]6C[C@@]3(C)[C@@H]5CC[C@H]4C2(C)C)OC[C@H]1OC(C)=O`, the IC50 is 13.6 µM in the assay with HCC1806 [2] and > 20 µM in the assay on MDA-MB-231 [3]. The inhibition at 20 µM in the assay with HCC1806 [7] and in the assay with MDA-MB-231 [10] was > 50% in each case.
Turning to `CC(=O)OC1O[C@]2(C[C@@H](C)[C@H]3[C@H](C[C@@]4(C)[C@@H]5CC[C@H]6C(C)(C)[C@@H](O[C@@H]7OC[C@@H](OC(C)=O)[C@H](OC(C)=O)[C@H]7OC(C)=O)CC[C@@]67C[C@@]57C[C@@H](OC(C)=O)[C@]34C)O2)[C@@H]2O[C@]12C` (stereo partly specified), the IC50 in the assay with HCC1806 [2] was 8.21 µM; with MDA-MB-231 [3], > 20 µM. Moreover, the inhibition at 20 µM with HCC1806 [7] and in the assay with MDA-MB-231 [10] was > 50% in each case.

Source of the values: ChEMBL document CHEMBL5257109, “Development of actein derivatives as potent anti-triple negative breast cancer agents” (Bioorg Med Chem Lett, 2023).
